Where two headings read alike, the source gives them in different places.
Target: T1, mTLR7 (Mus musculus, UniProt P58681)
T1 construct: Splenocytes isolated from male C57/BL6 mice; from tissue; host or cells: splenocytes from the spleen of male C57BL/6 mice
T1 sequence (P58681 27-1050): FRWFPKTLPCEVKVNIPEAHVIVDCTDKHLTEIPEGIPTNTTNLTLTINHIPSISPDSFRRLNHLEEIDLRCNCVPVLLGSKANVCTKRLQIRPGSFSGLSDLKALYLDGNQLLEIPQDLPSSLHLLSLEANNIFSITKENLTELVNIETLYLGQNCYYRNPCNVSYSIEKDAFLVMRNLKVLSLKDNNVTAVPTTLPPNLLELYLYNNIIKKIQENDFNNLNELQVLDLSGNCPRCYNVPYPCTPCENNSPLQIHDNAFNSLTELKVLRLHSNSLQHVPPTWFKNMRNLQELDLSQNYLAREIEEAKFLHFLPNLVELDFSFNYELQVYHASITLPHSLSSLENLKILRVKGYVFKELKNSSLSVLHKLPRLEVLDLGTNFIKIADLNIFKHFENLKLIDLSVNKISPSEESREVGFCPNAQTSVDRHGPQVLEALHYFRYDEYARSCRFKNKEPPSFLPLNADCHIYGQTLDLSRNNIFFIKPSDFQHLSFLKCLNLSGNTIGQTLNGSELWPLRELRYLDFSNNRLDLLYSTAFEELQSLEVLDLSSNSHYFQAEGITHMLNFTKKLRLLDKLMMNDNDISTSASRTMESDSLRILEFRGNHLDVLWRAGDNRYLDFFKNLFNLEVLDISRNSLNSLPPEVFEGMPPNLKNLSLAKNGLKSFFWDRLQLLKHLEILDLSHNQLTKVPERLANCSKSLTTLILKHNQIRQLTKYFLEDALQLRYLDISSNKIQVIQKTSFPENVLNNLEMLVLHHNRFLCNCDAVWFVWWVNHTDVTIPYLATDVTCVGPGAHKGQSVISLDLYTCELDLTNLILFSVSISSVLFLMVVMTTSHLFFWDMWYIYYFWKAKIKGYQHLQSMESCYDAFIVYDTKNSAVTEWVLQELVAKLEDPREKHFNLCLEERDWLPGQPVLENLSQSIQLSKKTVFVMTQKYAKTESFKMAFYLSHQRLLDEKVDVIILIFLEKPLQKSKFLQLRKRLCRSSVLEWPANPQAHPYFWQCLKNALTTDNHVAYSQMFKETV
Test: mTLR7 antagonism (IL-6 and TNF-α release assay) in mouse splenocytes, R0006/DOTAP stimulated
Format: cell-based
Conditions: 1 μM, mouse splenocytes
From the text: mTLR9 and mTLR7 Antagonism (Cytokine Release Assay) in Mouse Splenocytes
TLR7 ligand R0006 (IDT, 5′-rU*rU*rG*rU*rU*rG*rU*rU*rG*rU*rU*rG*rU*rU*rG*rU*rU*rG*rU*rU-3′ (SEQ ID NO:1)), Liposomal transfection reagent—DOTAP (Roche, Cat. No. 11202375001), TLR9 ligand CpG ODN2006 (Sequence: T*C*G*T*C*G*T*T*T*T*G*T*C*G*T*T*T*T*G*T*C*G*T*T; *=phosphorothioate (SEQ ID NO:2)) DMSO (Sigma, D2650), RPMI Powder (Sigma, R6504), Fetal Bovine Serum (Gibco, 10270), Dulbecco's Phosphate Buffered Saline (Sigma, D1408), 96 well plate (Flat bottom, Costar 3599), ELISA kit for IL-6 (EBioscience, 88-7064-77 and TNFa (EBioscience, 88-7346-88), MACS Buffer (AutoMACS Rinsing Solution (Miltenyl Biotec, 130-091-222)+0.05% BSA), RBC lysis buffer (0.85% NH4Cl), 40 μm cell strainer (BD Falcon, 352340) Method: A. Isolation of Mouse Splenocytes
Mouse spleen was isolated from C57BL6 mouse and stored in 1× chilled PBS buffer until further processed. Spleen was transferred to a sterile petriplate and chopped in to 5-6 pieces in presence of MACS buffer (100 μl) with the help of fresh surgical blade and crushed with flat plunger of a sterile syringe. A uniform suspension was prepared by passing cells through a 40 μm cell strainer. Cells were centrifuged at 450×g for 5 minutes at 4° C., supernatant was discarded and pellet dislodged gently, resuspended in 2 ml of pre-warmed (37° C.) RBC lysis buffer at room temperature with continuous gentle mixing with 1 ml pipette. Lysis buffer was neutralized with 12 ml of chilled MACS buffer and cells were passed through 40 μm cell strainer. Cell suspension was collected in 15 ml MACS buffer and centrifuged at 450×g for 5 minutes at 4° C. Pellet was resuspended in 15 ml MACS buffer and centrifuged at 400×g for 5 minutes. Cells were resuspended in 10 ml of RPMI complete medium and viability was estimated by Trypan blue method.
mTLR7 Antagonism (IL-6 and TNF-α Release Assay):
1 mg/ml stock of R0006 was prepared in sterile, endotoxin-free water. R0006 stock was diluted 10 fold with DOTAP and incubated for 30 minutes to form liposome complex (100 μg/ml of R0006). This complex was further diluted 10 fold with incomplete RPMI media (10 μg/ml of R0006) to achieve the final agonist concentration of 1 μg/ml. DOTAP alone was diluted 10 fold in incomplete RPMI media. NCEs were added in a concentration range of 30 μM to 1 nM in respective wells of assay plate, assay medium containing 0.3% DMSO were added to control wells. 0.2 million splenocytes were added to all the wells and incubated at 37° C. in 5% CO2 incubator for 30 minutes. 1 μg/ml of respective agonist was added to all the wells except those were assigned as negative controls and mixed thoroughly. DOTAP was added to negative control wells and incubated overnight at 37° C./5% CO2. The plate was centrifuged at 450×g for 5 minutes at room temperature and the supernatant was collected. ELISA was performed as per manufacturer's protocol. S/B Ratio, % Activity and % Inhibition was calculated using MS Excel. IC50 and inhibition curve was generated using Graph Pad Prism.

[1] = IL-6 release, read-out: mTLR7 inhibitory activity (% at 1 μM), IL-6
[2] = TNF-α release, read-out: mTLR7 inhibitory activity (% at 1 μM), TNF-α

| inhibition at 1 µM [1] [%] | inhibition at 1 µM [2] [%] | SMILES |
| --- | --- | --- |
| 100 | 99 | Cc1nc(-c2ccc(N3CCN(C(C)C)CC3)cc2)c2cc(CN3CCOCC3)[nH]c2c1C [Example A36, 4-[[4-[4-(4-isopropylpiperazin-1-yl)phenyl]-6,7-dimethyl-1H-pyrrolo[3,2-c]pyridin-2-yl]methyl] morpholine] |
|  | 100 | Cc1nc(-c2ccc(N3CCN(C)CC3)cc2)c2cc(CN3CCOCC3)[nH]c2c1C [Example A37, 4-[[6,7-dimethyl-4-[4-(4-methylpiperazin-1-yl)phenyl]-1H-pyrrolo[3,2-c]pyridin-2-yl]methyl] morpholine] |
| 100 | 100 | CCN1CCN(c2ccc(-c3nc(C)c(C)c4[nH]c(CN5CCOCC5)cc34)cc2)CC1 [Example A38, 4-[[4-[4-(4-ethylpiperazin-1-yl)phenyl]-6,7-dimethyl-1H-pyrrolo[3,2-c]pyridin-2-yl]methyl] morpholine] |
|  | 100 | Cc1nc(-c2ccc(N3CCN(C(C)C)CC3)cc2)c2cc(CN3CCCCC3)[nH]c2c1C [Example A39, 4-[4-(4-isopropylpiperazin-1-yl)phenyl]-6,7-dimethyl-2-(1-piperidylmethyl)-1H-pyrrolo[3,2-c]pyridine] |
|  | 100 | Cc1nc(-c2ccc(N3CCN(C(C)C)CC3)cc2)c2cc(CN3CCCC3)[nH]c2c1C [Example A40, 4-[4-(4-isopropylpiperazin-1-yl)phenyl]-6,7-dimethyl 2-(pyrrolidin-1-ylmethyl)-1H-pyrrolo[3,2-c)pyridine] |
| 34 | 9 | c1cc2[nH]c(CN3CCOCC3)cc2c(-c2ccc(N3CCNCC3)cc2)n1 [Example A42, 4-[[4-(4-(piperazin-1-yl)phenyl)-1H-pyrrolo[3,2-c]pyridin-2-yl]methyl] morpholine] |
| 2 | 3 | c1cc2[nH]c(CN3CCOCC3)cc2c(-c2ccc(OC3CCNCC3)cc2)n1 [Example A49, 4-[[4-[4-(4-piperidyloxy)phenyl]-1H-pyrrolo[3,2-c]pyridin-2-yl]methyl]morpholine] |
| 100 | 96 | Cc1cc2[nH]c(CN3CCOCC3)cc2c(-c2ccc(C3CCN(C(C)C)CC3)cc2)n1 [Example A51, 4-[[4-[4-(1-isopropyl-4-piperidyl)phenyl]-6-methyl-1H-pyrrolo[3,2-c]pyridin-2-yl]methyl]morpholine] |
| 100 | 83 | CC(C)N1CCN(c2ccc(-c3nccc4[nH]c(CN5CCOCC5)cc34)cn2)CC1 [Example A53, 4-[[4-[6-(4-isopropylpiperazin-1-yl)-3-pyridyl]-1H-pyrrolo[3,2-c]pyridin-2-yl]methyl]morpholine] |
|  | 0 | CC(C)N1CCC(n2cc(-c3nccc4[nH]c(CN5CCOCC5)cc34)cn2)CC1 [Example A54, 4-[[4-[1-(1-isopropyl-4-piperidyl)pyrazol-4-yl]-1H-pyrrolo[3,2-c]pyridin-2-yl]methyl]morpholine] |
| 100 | 33 | CC(C)N1CCN(Cc2ccc(-c3nccc4[nH]c(CN5CCOCC5)cc34)cc2)CC1 [Example A55, 4-[[4-[4-[(4-isopropylpiperazin-1-yl)methyl]phenyl]-1H-pyrrolo[3,2-c]pyridin-2-yl]methyl]morpholine] |
|  | 64 | CC(C)N1CCC(Oc2ccc(-c3nccc4[nH]c(CN5CCOCC5)cc34)cc2)CC1 [Example A56, 4-[[4-[4-[(1-isopropyl-4-piperidyl)oxy]phenyl]-1H-pyrrolo[3,2-c]pyridin-2-yl]methyl]morpholine] |
| 80 | 79 | CC(C)N1CCN(c2cccc(-c3nccc4[nH]c(CN5CCOCC5)cc34)c2)CC1 [Example A57, 4-[[4-[3-(4-isopropylpiperazin-1-yl)phenyl]-1H-pyrrolo[3,2-c]pyridin-2-yl]methyl]morpholine] |
|  | 29 | CN1CCN(Cc2ccc(-c3nccc4[nH]c(CN5CCOCC5)cc34)cc2)CC1 [Example A60, 4-[[4-[4-[(4-methylpiperazin-1-yl)methyl]phenyl]-1H-pyrrolo[3,2-c]pyridin-2-yl]methyl]morpholine] |
| 78 | 74 | CN1CCN(c2cccc(-c3nccc4[nH]c(CN5CCOCC5)cc34)c2)CC1 [Example A61, 4-[[4-[3-(4-methylpiperazin-1-yl)phenyl]-1H-pyrrolo[3,2-c]pyridin-2-yl]methyl]morpholine] |
|  | 75 | CN1CCC(Oc2ccc(-c3nccc4[nH]c(CN5CCOCC5)cc34)cc2)CC1 [Example A62, 4-[[4-[4-[(1-methyl-4-piperidyl)oxy]phenyl]-1H-pyrrolo[3,2-c]pyridin-2-yl]methyl]morpholine] |
|  | 0 | CN1CCC(n2cc(-c3nccc4[nH]c(CN5CCOCC5)cc34)cn2)CC1 [Example A63, 4-[[4-[1-(1-methyl-4-piperidyl)pyrazol-4-yl]-1H-pyrrolo[3,2-c]pyridin-2-yl]methyl]morpholine] |
| 13 | 4 | CC(C)N1CCC(c2ccc(-c3nccc4[nH]c(CN5CCOCC5)cc34)cn2)CC1 [Example A64, 4-[[4-[6-(1-isopropyl-4-piperidyl)-3-pyridyl]-1H-pyrrolo[3,2-c]pyridin-2-yl]methyl]morpholine] |
| 100 | 36 | CC(C)N1CCC(c2ccc(-c3nccc4[nH]c(CN5CCOCC5)cc34)cc2)CC1 [Example A70, 4-[[4-[4-(1-isopropyl-4-piperidyl)phenyl]-1H-pyrrolo[3,2-c]pyridin-2-yl]methyl]morpholine] |
| 0 | 14 | CC(C)N1CCN(c2ccc(-c3nccc4[nH]c(CN5CC(O)C5)cc34)cc2)CC1 [Example A72, 1-[[4-[4-(4-isopropylpiperazin-1-yl)phenyl]-1H-pyrrolo[3,2-c]pyridin-2-yl]methyl]azetidin-3-ol] |

| SMILES | inhibition at 1 µM [1] [%] | inhibition at 1 µM [2] [%] |
| --- | --- | --- |
| CC(C)N1CC=C(c2ccc(-c3nccc4[nH]c(CN5CCOCC5)cc34)cn2)CC1 [Example A52, 4-[[4-[6-(1-isopropyl-3,6-dihydro-2H-pyridin-4-yl)-3-pyridyl]-1H-pyrrolo[3,2-c]pyridin-2-yl]methyl]morpholine] | 71 | 10 |
